# Where a name gives a salt, the structure may show the parent alone.
# Experiments:
# [1] = target: T1, DPP-IV (Rattus norvegicus, UniProt P14740); experiment: Test for inhibitory action against DPP-IV (rat serum, Gly-Pro-AMC fluorescence); type: biochemical; conditions: Gly-Pro-AMC 50 μmol/L, pH 7.8, room temperature 20 minutes
# T1 construct: The coagulated blood was centrifuged at 3,000 rpm for 20 minutes to separate serum for use in the experiment; from tissue; host or cells: rat serum (blood from the crural aorta, coagulated and centrifuged)
# Protocol: Under mild anesthesia with diethylether, a rat was incised at lower left side of the limb, and the crural aorta was cut and blood was collected. The collected blood was immediately ice-cooled. The coagulated blood was centrifuged at 3,000 rpm for 20 minutes to separate serum for use in the experiment. As reaction buffer, an aqueous solution containing HEPES (final concentration of 25 mmol/L) and sodium chloride (final concentration of 140 mmol/L) was prepared so as to give a final pH of 7.8, and used after addition of BSA (final concentration of 1%). An assay was conducted using a black, flat-bottomed 96 well plate. A test sample (2 μL) was added to each well, and the sample was added with rat serum (25 u L) and reaction buffer (25 u L) containing magnesium chloride (80 mmol/L), and the mixture was left stand at room temperature for 5 minutes. Then, a reaction was initiated by the addition of 50 u L of a solution of Gly-Pro-AMC (AMC: 7-amino-4-methylcoumarin) (final concentration of 50 μmol/L) to each well, and the mixture was left stand in the dark at room temperature for 20 minutes. AMC, which was released by DPP-IV activity, was quantified by measurement of fluorescence at 460 nm which was excited at 390 nm. DPP-IV activity was calculated according to the following equation:
# Inhibitory activity against DPP-IV=100×{1−(Fs−F0)/(F100−F0)}
# F100: Fluorescence intensity of AMC with addition of serum
# F0: Fluorescence intensity of AMC without addition of serum
# Fs: Fluorescence intensity of AMC with addition of a sample and serum
# [2] = tested on: Wistar male rats; experiment: Suppressing effect on increase of blood sugar after oral glucose loading (Test Example 3, glucose oxidase method); type: in vivo, rat; conditions: Wistar male rats fasted 24 hours, 1 mg/kg po; for Blood-sugar level, 0 minute: 0 minute (before glucose loading); for Blood-sugar level, 30 minutes after glucose loading: glucose 2 g/kg po
# Protocol: Blood-sugar levels of Wistar male rats (10-week old, Charles river) fasted for 24 hours were measured. A test compound was orally administered to the rats in a dose of 1 mg/kg, and then immediately glucose (2 g/kg) was orally administered to the rats. After 30 minutes from the glucose loading, blood-sugar levels were further measured to evaluate suppressing effects of test compounds on increase of blood sugar. The sugar levels were measured by the glucose oxidase method [Clin. Chem., 6, 466 (1960); J. Clin. Path., 22, 246 (1969); Clin. Chem. Acta, 40, 115 (1972); Clin. Chem., 20, 606 (1974) or the like]. The test compounds were dissolved in 0.5% methylcellulose 400 for administration.
# [3] = tested on: Wistar male rats; experiment: Suppressing effect on increase of blood sugar after oral glucose loading (Test Example 2); type: in vivo, rat; conditions: Wistar male rats fasted 24 hours, 30 mg/kg po
# Protocol: Blood-sugar levels of Wistar male rats (9-week old, Charles river) fasted for 24 hours were measured. A test compound was orally administered to the rats in a dose of […], and then immediately glucose (2 g/kg) was orally administered to the rats. After 30 minutes from the glucose loading, blood-sugar levels were further measured to evaluate suppressing effects of test compounds on increase of blood sugar. The blood-sugar levels were measured by a portable apparatus for measurement of blood sugar [Blood glucose meter, Dexter-Z (Bayer. Sankyo, Tokyo)]. The test compounds were dissolved in 0.5% methylcellulose 400 for administration. The results are shown in Table 3 (** indicates p<0.01 in Student's t-test).
# T1 sequence (P14740 37-767 limits assumed): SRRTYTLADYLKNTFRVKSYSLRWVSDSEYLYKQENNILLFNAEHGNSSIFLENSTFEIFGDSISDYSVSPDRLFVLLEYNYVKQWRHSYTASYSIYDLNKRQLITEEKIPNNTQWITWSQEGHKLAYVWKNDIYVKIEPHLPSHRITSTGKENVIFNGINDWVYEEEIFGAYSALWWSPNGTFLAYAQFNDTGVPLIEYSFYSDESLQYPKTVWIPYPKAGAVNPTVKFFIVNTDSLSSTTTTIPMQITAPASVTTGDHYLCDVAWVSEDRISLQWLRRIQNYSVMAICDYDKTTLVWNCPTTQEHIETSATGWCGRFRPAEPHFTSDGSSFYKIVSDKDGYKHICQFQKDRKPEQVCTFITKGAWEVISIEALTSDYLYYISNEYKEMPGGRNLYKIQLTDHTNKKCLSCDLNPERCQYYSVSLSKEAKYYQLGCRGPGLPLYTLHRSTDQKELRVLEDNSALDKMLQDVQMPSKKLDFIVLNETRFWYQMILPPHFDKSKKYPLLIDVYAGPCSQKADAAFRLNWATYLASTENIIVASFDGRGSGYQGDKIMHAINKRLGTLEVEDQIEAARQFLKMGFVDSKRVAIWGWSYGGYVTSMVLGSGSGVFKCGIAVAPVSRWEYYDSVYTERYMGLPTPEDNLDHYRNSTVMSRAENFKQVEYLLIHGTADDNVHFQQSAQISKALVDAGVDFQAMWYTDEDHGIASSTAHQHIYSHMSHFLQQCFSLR
SMILES,IC50 [1] [nM],also measured
"N#Cc1cccnc1NCc1ccc(CNCC(=O)N2CCC[C@H]2C#N)cc1 [Compound 201, (S)-1-{4-[(3-Cyano-2-pyridyl)aminomethyl]benzylamino}acetyl-2-pyrrolidinecarbonitrile oxalate]",392,
"CC1(NCC(=O)N2CCC[C@H]2C#N)CCN(c2ccc(C#N)cn2)CC1 [Compound 207, (S)-1-[1-(5-Cyano-2-pyridyl)-4-methyl-4-piperidylamino]acetyl-2-pyrrolidinecarbonitrile dihydrochloride]",15,
"CC1(NCC(=O)N2CCC[C@H]2C#N)CCN(c2ncccn2)CC1 [Compound 233, (S)-1-[4-Methyl-1-(2-pyrimidinyl)-4-piperidylamino]acetyl-2-pyrrolidinecarbonitrile]",19,"Blood-sugar level, 0 minute [2]: 93 ± 15 mg/dL; Blood-sugar level, 30 minutes after glucose loading [2]: 183 ± 8 mg/dL"
"CC1(NCC(=O)N2CCC[C@H]2C#N)CCN(c2ccccn2)CC1 [Compound 238, (S)-1-[4-Methyl-1-(2-pyridyl)-4-piperidylamino]acetyl-2-pyrrolidinecarbonitrile dihydrochloride]",11,
"CCN(C)S(=O)(=O)c1ccc(NCC(C)(C)NCC(=O)N2CCC[C@H]2C#N)nc1 [Compound 513, (S)-1-{1-[5-(N-Ethyl-N-methylaminosulfonyl)-2-pyridylamino]-2-methyl-2-propylamino}acetyl-2-pyrrolidinecarbonitrile]",,"Blood-sugar level, 0 minute [2]: 109 ± 6 mg/dL; Blood-sugar level, 30 minutes after glucose loading [2]: 252 ± 22 mg/dL"
"N#C[C@@H]1CCCN1C(=O)CNC1CCN(S(=O)(=O)c2ccccc2)CC1 [Compound 407, (S)-1-(1-Benzenesulfonyl-4-piperidylamino)acetyl-2-carbonitrile methanesulfonate]",20,
"N#Cc1ccc(NCC2(NC(=O)CN3CCC[C@H]3C#N)CCCC2)nc1 [Compound 602, 1-[(5-Cyanopyridin-2-ylamino)methyl]-1-[(S)-2-cyanopyrrolidinylacetylamino]cyclopentane fumarate]",41,

# More lines, main results first:
IC50 [1] [nM],SMILES,also measured
18,"CC(C)(CNc1nccs1)NCC(=O)N1CCC[C@H]1C#N [Compound 226, (S)-1-[2-Methyl-1-(2-thiazolylamino)-2-propylamino]acetyl-2-pyrrolidinecarbonitrile fumarate]",
23,"CN(C)S(=O)(=O)c1ccc(NCC(C)(C)NCC(=O)N2CCC[C@H]2C#N)nc1 [Compound 501, (S)-1-{1-[5-(N,N-Dimethylaminosulfonyl)-2-pyridylamino]-2-methyl-2-propylamino}acetyl-2-pyrrolidinecarbonitrile]","Blood-sugar level, 0 minute [2]: 95 ± 7 mg/dL; Blood-sugar level, 30 minutes after glucose loading [2]: 182 ± 16 mg/dL"
34,"CC(C)(CNc1ccc(S(=O)(=O)NCCO)cn1)NCC(=O)N1CCC[C@H]1C#N [Compound 524, (S)-1-{1-{5-[N-(2-Hydroxyethyl)aminosulfonyl]-2-pyridylamino}-2-methyl-2-propylamino}acetyl-2-pyrrolidinecarbonitrile]",
53,"CC(C)(CNc1ccc(C#N)cc1)NCC(=O)N1CCC[C@H]1C#N [Compound 703, (S)-1-[1-(4-Cyanoanilino)-2-methyl-2-propylamino]acetyl-2-carbonitrile fumarate]",
31,"N#C[C@@H]1CCCN1C(=O)CNCCNc1cnccn1 [Compound 101, (S)-1-[2-(2-Pyrazinylamino)ethylamino]acetyl-2-pyrrolidinecarbonitrile dimethanesulfonate]","blood sugar level, 0 minute ([3]; 0 minute (before glucose loading)): 68 ± 2 mg/dL; blood sugar level, 30 minutes after glucose loading ([3]; glucose 2 g/kg po, 30 minutes, ** p<0.01 Student's t-test): 104 ± 4** mg/dL"
124,"N#C[C@@H]1CCCN1C(=O)CNCCNC(=O)c1ccccc1 [Compound 403, (S)-1-(2-Benzamidoethylamino)acetyl-2-pyrrolidinecarbonitrile hydrochloride]",
61,"N#C[C@@H]1CCCN1C(=O)CNCCNc1cnc2ccccc2n1 [Compound 103, (S)-1-[2-(2-Quinoxalinylamino)ethylamino]acetyl-2-pyrrolidinecarbonitrile dihydrochloride]",
27,"CC(C)(CNc1ccc(C(N)=O)cn1)NCC(=O)N1CCC[C@H]1C#N [Compound 221, (S)-1-[1-(5-Carbamoyl-2-pyridylamino)-2-methyl-2-propylamino]acetyl-2-pyrrolidinecarbonitrile]",
26,"CC1(NCC(=O)N2CCC[C@H]2C#N)CCN(c2ccc(S(=O)(=O)N3CC=CC3)cn2)CC1 [Compound 529, (S)-1-{4-Methyl-1-[5-(3-pyrrolin-1-ylsulfonyl)-2-pyridyl]-4-piperidylamino}acetyl-2-pyrrolidinecarbonitrile]",

# Source: patent US20040180925A1, “Dipeptidylpeptidase-IV inhibitor” (priority 2000, published 2004)
